Values of other authors, collected in patent US20070142399A1, “Dual function drugs and uses thereof” (Psychiatric Genomics, Inc., priority 2003, published 2007).

How the values were obtained:
D2 receptor = D2 receptor (Homo sapiens, UniProt P14416)
D1 receptor = D1 receptor (Homo sapiens, UniProt P21728)
Chain of D1 receptor (P21728 whole entry): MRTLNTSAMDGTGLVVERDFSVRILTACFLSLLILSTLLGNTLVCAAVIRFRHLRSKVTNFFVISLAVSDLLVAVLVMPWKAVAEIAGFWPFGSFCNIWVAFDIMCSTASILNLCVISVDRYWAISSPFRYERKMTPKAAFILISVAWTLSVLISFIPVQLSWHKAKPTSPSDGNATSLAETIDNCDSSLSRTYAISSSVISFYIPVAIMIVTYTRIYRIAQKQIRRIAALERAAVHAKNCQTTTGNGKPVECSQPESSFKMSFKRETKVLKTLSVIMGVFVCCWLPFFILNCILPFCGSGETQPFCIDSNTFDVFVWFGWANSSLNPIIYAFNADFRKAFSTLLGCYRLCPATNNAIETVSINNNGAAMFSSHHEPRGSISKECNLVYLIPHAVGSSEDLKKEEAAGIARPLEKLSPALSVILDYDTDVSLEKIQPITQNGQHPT

Chain of D2 receptor (P14416 whole entry): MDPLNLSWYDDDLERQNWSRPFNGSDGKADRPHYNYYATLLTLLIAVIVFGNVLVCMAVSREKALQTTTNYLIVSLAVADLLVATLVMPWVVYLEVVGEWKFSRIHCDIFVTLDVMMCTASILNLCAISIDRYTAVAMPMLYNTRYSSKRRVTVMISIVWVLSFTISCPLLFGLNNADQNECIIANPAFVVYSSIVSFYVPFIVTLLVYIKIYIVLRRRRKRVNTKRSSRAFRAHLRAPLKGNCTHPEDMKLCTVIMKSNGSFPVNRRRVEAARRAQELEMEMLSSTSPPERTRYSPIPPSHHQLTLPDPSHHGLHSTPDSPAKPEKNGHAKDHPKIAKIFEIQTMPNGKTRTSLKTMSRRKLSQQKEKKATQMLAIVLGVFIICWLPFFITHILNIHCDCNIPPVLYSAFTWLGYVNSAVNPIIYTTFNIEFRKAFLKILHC

D2 agonist activity (D2 receptor): residual partial D2 agonist activity
potency at the D1 receptor as an agonist (D1 receptor): not potent enough
SMILES: Oc1cc2c(cc1O)CC(NCc1ccccc1)CC2 (centres unmarked) [compound 80]
